This is an account of results in patent US20260176267A1, “PREPARATION OF IMIDAZOPYRIDINE AND IMIDAZOPYRIDAZINE DERIVATIVES AS NOVEL DIACYLGLYCERIDE O-ACYLTRANSFERASE 2 INHIBITORS” (Merck Sharp & Dohme LLC, priority 2022, published 2026).

Bounds are passed on as bounds.

The target of the assay is T1, human DGAT2 (hDGAT2) (Homo sapiens, UniProt Q96PD7).
T1 construct: made in house; host or cells: Sf-9 insect cells (baculovirus), membrane fraction
T1 sequence (Q96PD7 1-388): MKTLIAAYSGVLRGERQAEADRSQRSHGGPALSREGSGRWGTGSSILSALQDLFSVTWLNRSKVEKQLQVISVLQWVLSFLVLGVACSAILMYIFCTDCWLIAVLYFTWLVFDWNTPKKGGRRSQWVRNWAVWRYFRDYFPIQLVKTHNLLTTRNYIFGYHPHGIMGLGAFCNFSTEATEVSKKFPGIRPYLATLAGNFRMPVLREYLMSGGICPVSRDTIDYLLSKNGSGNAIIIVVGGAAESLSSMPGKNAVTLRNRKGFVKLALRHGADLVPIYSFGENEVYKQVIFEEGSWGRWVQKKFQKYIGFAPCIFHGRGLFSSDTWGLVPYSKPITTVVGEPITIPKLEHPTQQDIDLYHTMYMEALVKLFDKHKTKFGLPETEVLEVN
The assay is described as follows: DGAT2 Enzymatic Activity Assay. Type of assay: biochemical. Conditions: membrane prep of Sf-9 cells expressing hDGAT2; 13C18-triolein product by LC/MS/MS; 25 μM diolein, 5 μM 13C oleoyl-CoA, rt. How it is done:
Sf-9 insect cells were maintained in Grace's insect cell culture medium with 10% heated-inactivated fetal bovine serum, 1% Pluronic F-68 and 0.14 μg/ml Kanamycine sulfate at 27° C. in a shaker incubator. After infection with untagged baculovirus expressing human DGAT2 (hDGAT2) at multiplicity of infection (MOI) 3 for 48 hours, cells were harvested. Cell pellets were suspended in buffer containing 10 mM Tris-HCl pH 7.5, 1 mM EDTA, 250 mM sucrose and Complete Protease Inhibitor Cocktail (Sigma Aldrich), and sonicated on ice. Cell debris were removed by centrifugation at 2000×g for 15 minutes. Membrane fractions were isolated by ultracentrifugation (100,000×g), resuspended in the same buffer, and frozen (−80° C.) for later use. The protein concentration was determined with the Pierce™ BCA Protein Assay Kit (Thermo Fisher Scientific).
LC/MS/MS analyses were performed using Thermal Fisher's LX4-TSQ Vantage system. This system consists of an Agilent binary high-performance liquid chromatography (HPLC) pump and a TSQ Vantage triple quadrupole MS/MS instrument. For each sample, 2 μL samples from the top organic layer of in-plate liquid-liquid extraction were injected onto a Thermo Betabasic C4 column (2.1 mm×20 mm, 5 μm particle size). The samples were then eluted using the following conditions; mobile phase: Isopropanol:acetonitrile/10 mM ammonium formate=50/35/15 (v/v/v), flow rate: 0.8 mL/min, temperature: 25° C. Data was acquired in positive mode using a heated electrospray ionization (HESI) interface. The operational parameters for the TSQ Vantage MS/MS instrument were a spray voltage of 3000 V, capillary temperature of 280° C., vaporizer temperature 400° C., sheath gas 45 arbitrary unit. Aux gas 10 arbitrary units. […] The peak area was integrated by Xcalibur Quan software. The ratio between the ^13C18 triolein generated in the reaction and spiked in internal standard ^13C21-triolein was used to generate percentage inhibition and IC50 values. Compound percentage inhibition was calculated by the following formula: Inhibition %=1−[(compound response−low control)/(high control−low control)]×100%.
DGAT2 activity was determined by measuring the amount of enzymatic product ^13C18-triolein (^13C-1,2,3-Tri(cis-9-octadecenoyl)glycerol) using the membrane prep mentioned above. The assay was carried out in ABgene 384-well assay plates in a final volume of 25 μL at rt.
Consider `CC1(NC(=O)c2cn3nc(Oc4ncc(Cl)cc4OCC(F)(F)F)ccc3n2)CCS(=O)(=O)CC1` [Example 159, 6-[[5-Chloro-3-(2,2,2-trifluoroethoxy)-2-pyridyl]oxy]-N-(4-methyl-1,1-dioxo-thian-4-yl)imidazo[1,2-b]pyridazine-2-carboxamide], for which the IC50 was found to be 211 nM.
With `Cc1cc(Oc2ncccc2OCC(F)(F)F)cn2cc(C(=O)NC3(C)CCS(=O)(=O)CC3)nc12` [Example 24, 8-methyl-N-(4-methyl-1,1-dioxo-thian-4-yl)-6-[[3-(2,2,2-trifluoroethoxy)-2-pyridyl]oxy]imidazo[1,2-a]pyridine-2-carboxamide], half-maximal inhibition (IC50) was put at 117 nM.
As for `CC1(NC(=O)c2cn3nc(OCc4ncc(Cl)cc4OCC(F)F)ccc3n2)CCS(=O)(=O)CC1` [Example 180, 6-((5-Chloro-3-(2,2-difluoroethoxy)pyridin-2-yl)methoxy)-N-(4-methyl-1,1-dioxidotetrahydro-2H-thiopyran-4-yl)imidazo[1,2-b]pyridazine-2-carboxamide], the figure is 53 nM; as for `CCC1(NC(=O)c2nc3ccc(Oc4ncc(F)cc4OCC(F)F)cn3c2C)CCS(=O)(=O)CC1` [Example 66, 6-[[3-(2,2-difluoroethoxy)-5-fluoro-2-pyridyl]oxy]-N-(4-ethyl-1,1-dioxo-thian-4-yl)-3-methyl-imidazo[1,2-a]pyridine-2-carboxamide], 0.8 nM; as for `CC(F)(F)COc1cc(F)cnc1Oc1cn2cc(C(=O)NC3(C)CCS(=O)(=O)CC3)nc2cc1F` [Example 47, 6-((3-(2,2-difluoropropoxy)-5-fluoropyridin-2-yl)oxy)-7-fluoro-N-(4-methyl-1,1-dioxidotetrahydro-2H-thiopyran-4-yl)imidazo[1,2-a]pyridine-2-carboxamide], 8.7 nM.
The compound `Cc1cc2nc(C(=O)NC3(C)CCS(=O)(=O)CC3)cn2cc1Oc1ncc(Cl)cc1OCC1(F)CC1` [Example 10, 6-[[5-chloro-3-[(1-fluorocyclopropyl)methoxy]-2-pyridyl]oxy]-7-methyl-N-(4-methyl-1,1-dioxo-thian-4-yl)imidazo[1,2-a]pyridine-2-carboxamide] had a half-inhibitory concentration (IC50) of 13 nM.
`Cc1c(C(=O)NC2(C)CCS(=O)(=O)CC2)nc2ccc(Oc3ncc(C(=O)O)cc3OCC(F)(F)F)cn12` [Example 151, 6-[3-methyl-2-[(4-methyl-1,1-dioxo-thian-4-yl)carbamoyl]imidazo[1,2-a]pyridine-6-yl]oxy-5-(2,2,2-trifluoroethoxy)pyridine-3-carboxylic acid]: the IC50 was above 9990 nM.
The compound `CC1(NC(=O)c2nc3cc(Cl)c(Oc4ncc(Cl)cc4OCC(F)F)nn3c2Cl)CS(=O)(=O)C1` [Example 175, 3,7-dichloro-6-[[5-chloro-3-(2,2-difluoroethoxy)-2-pyridyl]oxy]-N-(3-methyl-1,1-dioxo-thietan-3-yl)imidazo[1,2-b]pyridazine-2-carboxamide] yielded an IC50 of 0.4 nM.
`Cc1cnc(OCC(F)(F)F)c(Oc2ccc3nc(C(=O)NC4(C)CCS(=O)(=O)CC4)c(C)n3c2)n1` [Example 108, 3-methyl-N-(4-methyl-1,1-dioxo-thian-4-yl)-6-[6-methyl-3-(2,2,2-trifluoroethoxy)pyrazin-2-yl]oxy-imidazo[1,2-a]pyridine-2-carboxamide] had a concentration for half-maximal inhibition (IC50) of 131 nM.
As to `Cc1c(C(=O)NC23CC(F)(C2)C3)nc2ccc(Oc3ncc(F)cc3OCC(F)F)cn12` [Example 99], inhibition was half-maximal at 56 nM (IC50).
In the case of `CC1(NC(=O)c2nc3ccc(Oc4nccnc4OCC(F)(F)F)nn3c2Cl)CCS(=O)(=O)CC1` [Example 178, 3-chloro-N-(4-methyl-1,1-dioxo-thian-4-yl)-6-[3-(2,2,2-trifluoroethoxy)pyrazin-2-yl]oxy-imidazo[1,2-b]pyridazine-2-carboxamide], the concentration for half-maximal inhibition (IC50) came to 4000 nM.
The compound `Cc1c(C(=O)NC2(C)CCC(F)(F)CC2)nc2ccc(Oc3ncccc3OCC(F)F)cn12` [Example 86, 6-[[3-(2,2-difluoroethoxy)-2-pyridyl]oxy]-N-(4,4-difluoro-1-methyl-cyclohexyl)-3-methyl-imidazo[1,2-a]pyridine-2-carboxamide] registered an IC50 of 6.8 nM.
`O=C(N[C@H]1CCCC(F)(F)[C@@H]1O)c1cn2cc(Oc3ncc(F)cc3OCC(F)(F)F)ccc2n1` [Example 16, N-[(1S,2R)-3,3-difluoro-2-hydroxy-cyclohexyl]-6-[[5-fluoro-3-(2,2,2-trifluoroethoxy)-2-pyridyl]oxy]imidazo[1,2-a]pyridine-2-carboxamide] gave a 50% inhibitory concentration (IC50) of 4.5 nM.
Compound `Cc1c(C(=O)NC2(C)CCS(=O)(=O)CC2)nc2ccc(Oc3ncc(C#N)cc3OCC(F)(F)F)cn12` [Example 149, 6-[[5-cyano-3-(2,2,2-trifluoroethoxy)-2-pyridyl]oxy]-3-methyl-N-(4-methyl-1,1-dioxo-thian-4-yl)imidazo[1,2-a]pyridine-2-carboxamide] yielded a half-maximal inhibitory concentration (IC50) of 33 nM.
Regarding `Cc1c(C(=O)N[C@H]2CCC(=O)NC2)nc2ccc(Oc3ncccc3OCC(F)(F)F)cn12` [Example 113, 3-methyl-N-[(3S)-6-oxo-3-piperidyl]-6-[[3-(2,2,2-trifluoroethoxy)-2-pyridyl]oxy]imidazo[1,2-a]pyridine-2-carboxamide], the IC50 is above 9990 nM.
As for `CCOc1cccnc1Oc1ccc2nc(C(=O)NC3(C)CCC(F)(F)CC3)cn2c1` [Example 3, N-(4,4-difluoro-1-methyl-cyclohexyl)-6-[(3-ethoxy-2-pyridyl)oxy]imidazo[1,2-a]pyridine-2-carboxamide], the figure is 5.8 nM; as for `CC1(NC(=O)c2nc3ccc(Oc4ncccc4OCC(F)(F)F)cn3c2C(=O)O)CCS(=O)(=O)CC1` [Example 132, 2-((4-methyl-1,1-dioxidotetrahydro-2H-thiopyran-4-yl)carbamoyl)-6-((3-(2,2,2-trifluoroethoxy)pyridin-2-yl)oxy)imidazo[1,2-a]pyridine-3-carboxylic acid], above 9990 nM; as for `CC1(NC(=O)c2nc3ccc(Oc4ncc(Cl)cc4OCC(F)F)nn3c2Cl)CS(=O)(=O)C1` [Example 176, 3-chloro-6-[[5-chloro-3-(2,2-difluoroethoxy)-2-pyridyl]oxy]-N-(3-methyl-1,1-dioxo-thietan-3-yl)imidazo[1,2-b]pyridazine-2-carboxamide], 24 nM.
As for `Cc1c(C(=O)NC2(CC(F)(F)F)CCCOC2)nc2ccc(Oc3ncccc3OCC(F)(F)F)cn12` (centres unmarked) [Example 112, 3-methyl-6-[[3-(2,2,2-trifluoroethoxy)-2-pyridyl]oxy]-N-[3-(2,2,2-trifluoroethyl)tetrahydropyran-3-yl]imidazo[1,2-a]pyridine-2-carboxamide], the figure is 3380 nM; as for `CC1(NC(=O)c2cn3cc(Oc4ncc(Cl)cc4OCC(F)(F)F)cnc3n2)CCS(=O)(=O)CC1` [Example 186, 6-((5-Chloro-3-(2,2,2-trifluoroethoxy)pyridin-2-yl)oxy)-N-(4-methyl-1,1-dioxidotetrahydro-2H-thiopyran-4-yl)imidazo[1,2-a]pyrimidine-2-carboxamide], 33 nM.
Compound `Cc1c(C(=O)NC2(C)CCS(=O)(=O)CC2)nc2ccc(Oc3nccc(Cl)c3OCC(F)(F)F)cn12` [Example 109, 6-[[4-chloro-3-(2,2,2-trifluoroethoxy)-2-pyridyl]oxy]-3-methyl-N-(4-methyl-1,1-dioxo-thian-4-yl)imidazo[1,2-a]pyridine-2-carboxamide] came in with a half-maximal inhibitory concentration (IC50) of 224 nM.
`Cc1c(Oc2ncc(F)cc2OCC(F)(F)F)ccc2nc(C(=O)NC3(C)CCS(=O)(=O)CC3)cn12` [Example 34, 6-[[5-fluoro-3-(2,2,2-trifluoroethoxy)-2-pyridyl]oxy]-5-methyl-N-(4-methyl-1,1-dioxo-thian-4-yl)imidazo[1,2-a]pyridine-2-carboxamide] yielded an IC50 of 2.8 nM.
As to `Cc1cc2nc(C(=O)NC3(C)CCS(=O)(=O)CC3)cn2c(C)c1Oc1ncc(F)cc1OCC(C)(F)F` [Example 40, 6-[[3-(2,2-difluoropropoxy)-5-fluoro-2-pyridyl]oxy]-5,7-dimethyl-N-(4-methyl-1,1-dioxo-thian-4-yl)imidazo[1,2-a]pyridine-2-carboxamide], the midpoint of inhibition, the IC50, lay at 52 nM.

The IC50 is the midpoint of a concentration-inhibition curve.
